Results: patent US9212170B2, “4-alkanoylamino-3-pyrazolone derivative” (Daiichi Sankyo Company, Limited, priority 2012, dated 2015)
Counter-ions that a name gives are not always drawn.

Test system: human liver cancer-derived cell line Hep3B
Experiment: In vitro erythropoietin (EPO) induction activity in Hep3B cells (human EPO ELISA of culture supernatant)
Assay type: cell-based
Conditions: test compound 12.5 μM in 0.5% DMSO, 32 hours at 37° C., EPO in culture supernatant expressed as a multiple of the control (0.5% DMSO = 1), read-out: EPO concentration (multiple)
Method: In vitro erythropoietin (EPO) induction activity of test compounds was evaluated using human liver cancer-derived cell line Hep3B (ATCC, Manassas, Va.). Hep3B cells were cultured overnight at 37° C. in Dulbecco's modified Eagle's medium (DMEM) in the presence of 10% fetal bovine serum (FBS) (24-well plate, 1.0×10^5 cells/well). After replacing with fresh DMEM (+10% FBS) containing a test compound dissolved in 0.5% dimethyl sulfoxide (DMSO) (prepared to a concentration of 12.5 μM) or a solvent control (0.5% DMSO), the cells were cultured for 32 hours at 37° C. After recovering the culture supernatant, EPO concentration in the culture supernatant was quantified using human EPO ELISA kits (StemCell Technologies). The EPO concentration obtained using each test compound was expressed as a multiple of the EPO concentration obtained using the control.

SMILES	fold induction at 12.5 µM
CC(=O)Nc1c[nH]n(-c2ccc(C(=O)Nc3ccc(C4CCCCC4)cc3)cn2)c1=O [Example 1, 6-(4-Acetamido-5-oxo-2,5-dihydro-1H-pyrazol-1-yl)-N-(4-cyclohexylphenyl)nicotinamide]	37
CC(=O)Nc1c[nH]n(-c2ccc(C(=O)Nc3ccc(C(C)(C)C)cc3)cn2)c1=O [Example 2, 6-(4-Acetamido-5-oxo-2,5-dihydro-1H-pyrazol-1-yl)-N-(4-tert-butylphenyl)nicotinamide]	36
CC(=O)Nc1c[nH]n(-c2ccc(C(=O)Nc3cccc(C(C)(C)C)c3)cn2)c1=O [Example 3, 6-(4-Acetamido-5-oxo-2,5-dihydro-1H-pyrazol-1-yl)-N-(3-tert-butylphenyl)nicotinamide]	17
CC(=O)Nc1c[nH]n(-c2ccc(C(=O)Nc3ccc(C(F)(F)F)cc3)cn2)c1=O [Example 4, 6-(4-Acetamido-5-oxo-2,5-dihydro-1H-pyrazol-1-yl)-N-[4-(trifluoromethyl)phenyl]nicotinamide]	17
CC(=O)Nc1c[nH]n(-c2ccc(C(=O)Nc3ccc(Cl)cc3)cn2)c1=O [Example 5, 6-(4-Acetamido-5-oxo-2,5-dihydro-1H-pyrazol-1-yl)-N-(4-chlorophenyl)nicotinamide]	12
CC(=O)Nc1c[nH]n(-c2cc(N3CCOCC3)ncn2)c1=O [Example 6, N-[2-(6-Morpholin-4-ylpyrimidin-4-yl)-3-oxo-2,3-dihydro-1H-pyrazol-4-yl]acetamide formate]	13
CC(=O)Nc1c[nH]n(-c2cc(N3CCCCC3)ncn2)c1=O [Example 7, N-[3-Oxo-2-(6-piperidin-1-ylpyrimidin-4-yl)-2,3-dihydro-1H-pyrazol-4-yl]acetamide formate]	29
CC(=O)Nc1c[nH]n(-c2ccc(COCc3ccccc3)cn2)c1=O [Example 8, N-(2-{5-[(Benzyloxy)methyl]pyridin-2-yl}-3-oxo-2,3-dihydro-1H-pyrazol-4-yl)acetamide]	26
CC(=O)Nc1c[nH]n(-c2cc(NCCc3ccccc3)ncn2)c1=O [Example 9, N-(3-Oxo-2-{6-[(2-phenylethyl)amino]pyrimidin-4-yl}-2,3-dihydro-1H-pyrazol-4-yl)acetamide]	6.1
CC(=O)Nc1c[nH]n(-c2cc(COCc3ccccc3)ccn2)c1=O [Example 10, N-(2-{4-[(Benzyloxy)methyl]pyridin-2-yl}-3-oxo-2,3-dihydro-1H-pyrazol-4-yl)acetamide]	23
CC(=O)Nc1c[nH]n(-c2ccc(C(=O)NCc3cccc(-c4ccccc4)c3)cn2)c1=O [Example 11, 6-(4-Acetamido-5-oxo-2,5-dihydro-1H-pyrazol-1-yl)-N-(biphenyl-3-ylmethyl)nicotinamide]	41
CC(=O)Nc1c[nH]n(-c2ccc(C(=O)NCc3ccc(-c4ccccc4C#N)cc3)cn2)c1=O [Example 12, 6-(4-Acetamido-5-oxo-2,5-dihydro-1H-pyrazol-1-yl)-N-[(2′-cyanobiphenyl-4-ylmethyl)]nicotinamide]	2.8
CC(=O)Nc1c[nH]n(-c2ccc(COCc3ccc(-c4ccccc4C#N)cc3)cn2)c1=O [Example 13, N-[2-(5-{[(2′-Cyanobiphenyl-4-yl)methoxy]methyl}pyridin-2-yl)-3-oxo-2,3-dihydro-1H-pyrazol-4-yl]acetamide]	29
CC(=O)Nc1c[nH]n(-c2ccc(COCc3ccc(-c4ccccc4)cc3)cn2)c1=O [Example 14, N-(2-{5-[(Biphenyl-4-ylmethoxy)methyl]pyridin-2-yl}-3-oxo-2,3-dihydro-1H-pyrazol-4-yl)acetamide]	22
CC(=O)Nc1c[nH]n(-c2ccc(COCc3cccc(-c4ccccc4)c3)cn2)c1=O [Example 15, N-(2-{5-[(Biphenyl-3-ylmethoxy)methyl]pyridin-2-yl}-3-oxo-2,3-dihydro-1H-pyrazol-4-yl)acetamide]	24
CC(=O)Nc1c(C)[nH]n(-c2ccc(C(=O)Nc3ccc(C(F)(F)F)cc3)cn2)c1=O [Example 16, 6-(4-Acetamido-3-methyl-5-oxo-2,5-dihydro-1H-pyrazol-1-yl)-N-[4-(trifluoromethyl)phenyl]nicotinamide]	3.4
CC(=O)Nc1c(C)[nH]n(-c2ccc(C(=O)Nc3ccc(Cl)cc3)cn2)c1=O [Example 17, 6-(4-Acetamido-3-methyl-5-oxo-2,5-dihydro-1H-pyrazol-1-yl)-N-(4-chlorophenyl)nicotinamide]	4.3
CC(=O)Nc1c(C)[nH]n(-c2ccc(C(=O)Nc3ccc(Br)cc3)cn2)c1=O [Example 18, 6-(4-Acetamido-3-methyl-5-oxo-2,5-dihydro-1H-pyrazol-1-yl)-N-(4-bromophenyl)nicotinamide]	3.3
CC(=O)Nc1c(C)[nH]n(-c2ccc(C(=O)Nc3ccc(C(C)(C)C)cc3)cn2)c1=O [Example 19, 6-(4-Acetamido-3-methyl-5-oxo-2,5-dihydro-1H-pyrazol-1-yl)-N-(4-tert-butylphenyl)nicotinamide]	13
CC(=O)Nc1c(C)[nH]n(-c2ccc(C(=O)Nc3ccc(-c4ccccc4)nc3)cn2)c1=O [Example 20, 6-(4-Acetamido-3-methyl-5-oxo-2,5-dihydro-1H-pyrazol-1-yl)-N-(6-phenylpyridin-3-yl)nicotinamide]	3.7
CC(=O)Nc1c(C)[nH]n(-c2ccc(COCc3ccc(-c4ccccc4C#N)cc3)cn2)c1=O [Example 21, N-[2-(5-{[(2′-Cyanobiphenyl-4-yl)methoxy]methyl}pyridin-2-yl)-5-methyl-3-oxo-2,3-dihydro-1H-pyrazol-4-yl]acetamide]	20
Cc1[nH]n(-c2ccc(C(=O)Nc3ccc(-c4ccccc4)nc3)cn2)c(=O)c1NC(=O)CCC(=O)OC(C)(C)C [Example 22, Tert-butyl 4-[(5-methyl-3-oxo-2-{5-[(6-phenylpyridyl-3-yl)carbamoyl]pyridin-2-yl}-2,3-dihydro-1H-pyrazol-4-yl)amino]-4-oxobutanoate]	1.9
Cc1[nH]n(-c2ccc(C(=O)Nc3ccc(-c4ccccc4)nc3)cn2)c(=O)c1NC(=O)CCC(=O)O [Example 23, 4-[(5-Methyl-3-oxo-2-{5-[(6-phenylpyridyl-3-yl)carbamoyl]pyridin-2-yl}-2,3-dihydro-1H-pyrazol-4-yl)amino]-4-oxobutanoic acid]	2.7
CC(=O)Nc1c(C)[nH]n(-c2ccc(COCc3ccc(C(F)(F)F)cc3)cn2)c1=O [Example 24, N-{5-Methyl-3-oxo-2-[5-({[4-(trifluoromethyl)benzyl]oxy}methyl)pyridin-2-yl]-2,3-dihydro-1H-pyrazol-4-yl}acetamide]	22
CC(=O)Nc1c(C)[nH]n(-c2ccc(Cc3ccc(C(F)(F)F)cc3)cn2)c1=O [Example 25, N-(5-Methyl-3-oxo-2-{5-[4-(trifluoromethyl)benzyl]pyridin-2-yl}-2,3-dihydro-1H-pyrazol-4-yl)acetamide]	16
CC(=O)Nc1c(C)[nH]n(-c2ccc(CCc3ccc(C(F)(F)F)cc3)cn2)c1=O [Example 26, N-[5-Methyl-3-oxo-2-(5-{2-[4-(trifluoromethyl)phenyl]ethyl}pyridin-2-yl)-2,3-dihydro-1H-pyrazol-4-yl]acetamide]	22
CC(=O)Nc1c(C)[nH]n(-c2ccc(/C=C/c3ccc(C(F)(F)F)cc3)cn2)c1=O [Example 27, N-[5-Methyl-3-oxo-2-(5-{(E)-2-[4-(trifluoromethyl)phenyl]ethenyl}pyridin-2-yl)-2,3-dihydro-1H-pyrazol-4-yl]acetamide]	2.7
